Measured values published in paper PMC9403976, “Elucidating the path to Plasmodium prolyl-tRNA synthetase inhibitors that overcome halofuginone resistance” (Nature Communications, 2022).
pIC50: −log10 of the molar value. “And” between values parts separate entries of the source, which are not always exact repeats. Equal entries are not always repeated. Where two headings read alike, the source gives them in different places.

Experiments:
[1] = biological target: T1, PfcProRS (Plasmodium falciparum, UniProt Q8I5R7); assay type: binding; settings: replicates 1-3
T1 construct: made in house; host or cells: E. coli SoluBL-21

[2] = biological target: HsProRS (Homo sapiens, UniProt P07814); assay: TR-FRET ligand displacement assay with tracer MAT379 (CoraFluor-1-Halo and anti-His6 antibody formats); assay type: binding; design: made in house; host or cells: E. coli SoluBL-21; settings: for HsProRS % signal at 10 μM: no added proline/ATP (-)
[3] = system: P. falciparum Dd2-2D4; assay: P. falciparum asexual blood stage (ABS) growth assay, SYBR Green, 72 h, wild-type parasites; assay type: cell-based, Plasmodium falciparum; settings: Plasmodium falciparum, DD2; SI Fig 16b; values on -log scale; read-out: ABS - Dd2-2D4 (converted)
[4] = read-out: HsProRS IC50 + 100 μM proline, + 100 μM proline

HsProRS, sequence (P07814 996-1512): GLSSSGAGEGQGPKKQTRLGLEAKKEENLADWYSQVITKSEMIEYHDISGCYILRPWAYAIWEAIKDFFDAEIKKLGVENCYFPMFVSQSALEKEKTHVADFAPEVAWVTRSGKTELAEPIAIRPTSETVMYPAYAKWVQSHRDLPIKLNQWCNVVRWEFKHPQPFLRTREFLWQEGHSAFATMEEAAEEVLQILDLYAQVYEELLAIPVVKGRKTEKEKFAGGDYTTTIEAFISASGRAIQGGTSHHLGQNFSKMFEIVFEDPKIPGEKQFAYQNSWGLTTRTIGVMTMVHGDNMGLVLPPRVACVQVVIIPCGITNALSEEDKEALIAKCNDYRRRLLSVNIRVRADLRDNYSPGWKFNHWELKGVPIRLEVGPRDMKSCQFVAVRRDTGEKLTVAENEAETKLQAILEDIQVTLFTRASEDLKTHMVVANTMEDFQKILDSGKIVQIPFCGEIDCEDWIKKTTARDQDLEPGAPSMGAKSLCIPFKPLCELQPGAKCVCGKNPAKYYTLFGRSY
T1 sequence (Q8I5R7 249-746): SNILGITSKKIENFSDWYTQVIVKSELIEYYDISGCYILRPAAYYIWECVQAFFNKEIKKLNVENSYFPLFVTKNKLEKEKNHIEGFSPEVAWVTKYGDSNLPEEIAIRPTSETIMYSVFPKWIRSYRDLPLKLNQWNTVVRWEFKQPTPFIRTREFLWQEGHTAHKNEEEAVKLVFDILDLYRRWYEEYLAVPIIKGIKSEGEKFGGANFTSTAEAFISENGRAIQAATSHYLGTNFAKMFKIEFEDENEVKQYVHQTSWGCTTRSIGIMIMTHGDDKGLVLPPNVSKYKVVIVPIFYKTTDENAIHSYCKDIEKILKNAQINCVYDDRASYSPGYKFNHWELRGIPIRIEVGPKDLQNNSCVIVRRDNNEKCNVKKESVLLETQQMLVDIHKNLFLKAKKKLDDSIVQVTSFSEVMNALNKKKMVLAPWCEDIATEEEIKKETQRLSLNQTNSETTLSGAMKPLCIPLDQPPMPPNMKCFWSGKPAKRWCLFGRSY

SMILES | Normalized response, dose-response replicates (SI Fig 14) ([1]; Log[inhibitor] (M) -5.000) | Normalized response, dose-response replicates (SI Fig 14) ([1]; Log[inhibitor] (M) -5.301) | Normalized response, dose-response replicates (SI Fig 14) ([1]; Log[inhibitor] (M) -5.601) | Normalized response, dose-response replicates (SI Fig 14) ([1]; Log[inhibitor] (M) -5.904) | Normalized response, dose-response replicates (SI Fig 14) ([1]; Log[inhibitor] (M) -6.208) | Normalized response, dose-response replicates (SI Fig 14) ([1]; Log[inhibitor] (M) -6.509) | Normalized response, dose-response replicates (SI Fig 14) ([1]; Log[inhibitor] (M) -6.796) | Normalized response, dose-response replicates (SI Fig 14) ([1]; Log[inhibitor] (M) -7.108) | Normalized response, dose-response replicates (SI Fig 14) ([1]; Log[inhibitor] (M) -7.409) | Normalized response, dose-response replicates (SI Fig 14) ([1]; Log[inhibitor] (M) -7.710) | Normalized response, dose-response replicates (SI Fig 14) ([1]; Log[inhibitor] (M) -8.000) | Normalized response, dose-response replicates (SI Fig 14) ([1]; Log[inhibitor] (M) -8.301) | Normalized response, dose-response replicates (SI Fig 14) ([1]; Log[inhibitor] (M) -8.602) | Normalized response, dose-response replicates (SI Fig 14) ([1]; Log[inhibitor] (M) -9.000) | Normalized response, dose-response replicates (SI Fig 14) ([1]; Log[inhibitor] (M) -9.301) | pIC50 [2] | HsProRS % signal at 10 μM, + 100 μM proline ([2]; + 100 μM proline) [%] | HsProRS % signal at 10 μM [2] [%] | pIC50 [2, 4] | EC50 [3] [µM] | also measured
Nc1nccnc1C(=O)NC1Cc2ccccc2C1 [compound 45] | 9.00E-01 and 8.01E-01 and 8.09E-01 | 8.40E-01 and 9.11E-01 and 9.42E-01 | 1.06E+00 and 1.02E+00 and 9.65E-01 | 1.09E+00 (2×) and 1.04E+00 | 9.29E-01 and 9.65E-01 and 9.12E-01 | 8.69E-01 and 9.97E-01 and 9.91E-01 | 1.07E+00 and 1.10E+00 and 9.29E-01 | 1.07E+00 and 1.01E+00 and 9.62E-01 | 8.73E-01 and 9.86E-01 and 1.07E+00 | 9.54E-01 and 1.09E+00 and 1.02E+00 | 9.85E-01 and 1.09E+00 and 1.00E+00 | 1.09E+00 and 9.49E-01 and 9.81E-01 | 1.13E+00 and 9.21E-01 and 9.56E-01 | 1.01E+00 and 9.94E-01 and 8.80E-01 | 9.92E-01 (2×) and 9.81E-01 | < 5.00 | 83.7 | 90.2 | < 5.00 | 13.6 | 
CNc1nccnc1C(=O)NC1Cc2ccccc2C1 [compound 46] | 8.16E-01 and 6.16E-01 and 6.52E-01 | 8.98E-01 and 7.41E-01 and 8.21E-01 | 9.35E-01 and 8.99E-01 and 9.60E-01 | 1.14E+00 and 9.86E-01 and 9.79E-01 | 1.04E+00 and 1.02E+00 and 8.92E-01 | 1.02E+00 (2×) and 9.27E-01 | 1.13E+00 and 1.15E+00 and 1.04E+00 | 9.45E-01 and 1.04E+00 and 8.83E-01 | 1.08E+00 and 9.92E-01 and 1.03E+00 | 9.83E-01 and 1.09E+00 and 9.75E-01 | 9.64E-01 and 1.04E+00 and 9.43E-01 | 1.03E+00 (2×) and 1.01E+00 | 1.06E+00 and 9.77E-01 and 1.03E+00 | 9.75E-01 and 9.25E-01 and 9.98E-01 | 9.09E-01 and 1.02E+00 and 8.23E-01 | < 5.00 | 91.7 | 97.1 | < 5.00 | 8.11 | 
O=c1[nH]c2nccnc2c(=O)n1C1Cc2ccccc2C1 [compound 47] | 3.53E-01 and 3.73E-01 and 3.10E-01 | 5.89E-01 and 4.94E-01 and 3.58E-01 | 7.17E-01 and 7.23E-01 and 6.31E-01 | 1.01E+00 and 8.61E-01 and 7.86E-01 | 1.02E+00 and 1.03E+00 and 9.13E-01 | 9.57E-01 and 9.63E-01 and 9.85E-01 | 1.08E+00 and 9.96E-01 and 1.07E+00 | 9.59E-01 and 1.12E+00 and 1.15E+00 | 1.11E+00 and 1.34E+00 and 1.10E+00 | 1.07E+00 (2×) and 1.12E+00 | 1.02E+00 and 1.00E+00 and 1.01E+00 | 1.13E+00 and 1.06E+00 and 1.10E+00 | 1.07E+00 and 9.89E-01 and 9.49E-01 | 9.68E-01 and 9.48E-01 and 1.08E+00 | 9.08E-01 and 1.04E+00 and 1.01E+00 | < 5.00 |  | 79.5 |  | 11.1 | Kd ([2]; HsProRS (KD [nM]) + 100 μM proline mean, + 100 μM proline): 2650 nM
Nc1nccnc1C(=O)NC1CCCCC1 [compound 48] | 7.98E-01 and 9.64E-01 and 8.59E-01 | 1.00E+00 and 9.90E-01 and 9.60E-01 | 1.12E+00 and 9.39E-01 and 1.04E+00 | 1.09E+00 and 1.16E+00 and 9.71E-01 | 1.14E+00 and 9.41E-01 and 1.00E+00 | 1.15E+00 and 1.05E+00 and 9.08E-01 | 9.89E-01 and 9.81E-01 and 1.09E+00 | 9.93E-01 and 1.12E+00 and 9.45E-01 | 1.04E+00 and 1.09E+00 and 1.06E+00 | 1.09E+00 and 9.79E-01 and 1.07E+00 | 1.09E+00 and 1.00E+00 and 1.03E+00 | 1.08E+00 and 1.10E+00 and 1.07E+00 | 1.05E+00 and 1.09E+00 and 1.03E+00 | 1.01E+00 and 1.14E+00 and 9.74E-01 | 1.02E+00 and 1.01E+00 and 1.04E+00 | < 5.00 | 87.4 | 89.6 | < 5.00 | 8.75 | 
O=C(NC1CCCCC1)c1nccnc1NC(=O)C1Cc2ccccc2C1 [compound 49] | 8.45E-01 and 8.81E-01 and 7.61E-01 | 9.54E-01 and 9.61E-01 and 9.77E-01 | 1.16E+00 and 9.36E-01 and 1.07E+00 | 8.95E-01 and 1.06E+00 and 1.02E+00 | 1.16E+00 and 9.70E-01 and 1.06E+00 | 1.04E+00 and 1.06E+00 and 1.11E+00 | 1.05E+00 and 9.78E-01 and 1.11E+00 | 1.04E+00 and 1.10E+00 and 1.05E+00 | 1.08E+00 and 9.76E-01 and 1.10E+00 | 9.25E-01 and 1.04E+00 and 1.10E+00 | 1.07E+00 and 1.04E+00 and 1.10E+00 | 9.50E-01 and 1.14E+00 and 9.21E-01 | 9.83E-01 and 1.05E+00 and 9.81E-01 | 1.05E+00 and 1.09E+00 and 1.08E+00 | 1.08E+00 and 1.02E+00 and 9.82E-01 | < 5.00 | 103 | 90.3 | < 5.00 | 6.81 | 
